# Biological target: calpain 1 (Homo sapiens (Human), UniProt P07384)
# Test: Assay for the determination of the capacity to inhibit calpain 1 (Calpain-Glo Protease kit)
# Assay type: biochemical
# Settings: Calpain-Glo luminescence; 16 ng/mL calpain 1; at least 6 concentrations; read-out: Calpain 1 inhibitory activity IC50
# Procedure: Assay for the Determination of the Capacity to Inhibit Calpain 1
# Activity of Calpain 1 was measured by using Calpain-Glo Protease kit from Promega. Assays were run in 384-well black plates with clear bottom. 5 μl of compounds in a 10 mM HEPES and 1 mM EDTA aqueous solution were incubated with 15 μL of a solution of 16 ng/mL calpain 1 (Sigma Aldrich) for 2 minutes and then 20 μL of Calpain-Glo™ Reagent provided in the kit were added to each well. Luminiscence elicited by calpain 1-induced substrate lysis was measured in a Hamamatsu FDSS 7000 reader and data was calculated from the maximal luminescence peak. Calpain inhibition was calculated from the formula: % inhibition=[…]; wherein LT is the luminescence observed in the tested compound, LB is blank luminescence obtained from a well without calpain 1 and LC is the luminescence observed in control wells including calpain1 in the absence of inhibitor.
# All compounds were tested using, at least, 6 concentrations to allow calculate the IC50 (concentration that inhibits the activity of calpain 1 by 50%).
# Calpastatin and ALLN were included as control inhibitors in all the assays.
# calpain 1, sequence (P07384 whole entry): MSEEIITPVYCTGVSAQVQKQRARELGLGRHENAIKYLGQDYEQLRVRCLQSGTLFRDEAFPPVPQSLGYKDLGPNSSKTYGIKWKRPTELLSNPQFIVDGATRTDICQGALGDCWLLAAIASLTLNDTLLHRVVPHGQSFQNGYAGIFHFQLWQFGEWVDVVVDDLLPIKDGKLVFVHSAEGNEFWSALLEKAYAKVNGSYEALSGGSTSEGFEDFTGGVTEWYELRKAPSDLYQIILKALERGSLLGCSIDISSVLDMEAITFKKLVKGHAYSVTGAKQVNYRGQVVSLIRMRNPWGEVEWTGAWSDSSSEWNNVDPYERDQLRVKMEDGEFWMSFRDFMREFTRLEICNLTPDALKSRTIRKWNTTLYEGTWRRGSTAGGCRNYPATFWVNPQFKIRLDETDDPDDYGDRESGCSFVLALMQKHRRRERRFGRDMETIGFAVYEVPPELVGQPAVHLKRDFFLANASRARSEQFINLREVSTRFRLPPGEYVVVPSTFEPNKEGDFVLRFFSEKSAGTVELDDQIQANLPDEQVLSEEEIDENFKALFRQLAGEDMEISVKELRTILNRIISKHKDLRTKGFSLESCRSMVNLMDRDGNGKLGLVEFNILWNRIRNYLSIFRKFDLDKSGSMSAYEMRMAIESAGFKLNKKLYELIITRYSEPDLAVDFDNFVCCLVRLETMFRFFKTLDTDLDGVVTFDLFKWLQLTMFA
# calpain 1, sequence (P04632 whole entry partner): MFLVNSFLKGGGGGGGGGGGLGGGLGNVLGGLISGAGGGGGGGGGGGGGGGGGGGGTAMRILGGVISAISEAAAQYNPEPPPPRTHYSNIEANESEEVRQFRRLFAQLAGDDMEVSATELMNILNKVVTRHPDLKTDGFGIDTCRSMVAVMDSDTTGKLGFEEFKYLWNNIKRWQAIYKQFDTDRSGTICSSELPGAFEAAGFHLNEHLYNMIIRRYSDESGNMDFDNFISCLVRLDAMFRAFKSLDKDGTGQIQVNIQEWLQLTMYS
row,Structure (SMILES),IC50
1,"COc1cccc(C(=O)N[C@@H](CC(C)C)C(=O)N[C@@H](Cc2ccccc2)C(=O)C(=O)NC2CC2)c1 [Example 1, N-((S)-1-(((S)-4-(cyclopropylamino)-3,4-dioxo-1-phenylbutan-2-yl)amino)-4-methyl-1-oxopentan-2-yl)-3-methoxybenzamide]",0.03 nM
2,"COc1ccccc1C(=O)N[C@@H](CC(C)C)C(=O)N[C@@H](Cc1ccccc1)C(=O)C(=O)NC1CC1 [Comp. Example 6, N-((S)-1-(((S)-4-(cyclopropylamino)-3,4-dioxo-1-phenylbutan-2-yl)amino)-4-methyl-1-oxopentan-2-yl)-2-methoxybenzamide, reference compound]",110 nM
3,"COc1cccc(C(=O)N[C@@H](CC2CC2)C(=O)NC(Cc2ccccc2)C(=O)C(=O)NC2CC2)c1 (stereo partly drawn) [Example 3, N-((S)-3-cyclopropyl-1-((4-(cyclopropylamino)-3,4-dioxo-1-phenylbutan-2-yl)amino)-1-oxopropan-2-yl)-3-methoxybenzamide]",0.008 nM
4,"COc1ccc(C(=O)N[C@@H](CC(C)C)C(=O)N[C@@H](Cc2ccccc2)C(=O)C(=O)NC2CC2)cc1 [Comp. Example 5, N-((S)-1-(((S)-4-(cyclopropylamino)-3,4-dioxo-1-phenylbutan-2-yl)amino)-4-methyl-1-oxopentan-2-yl)-4-methoxybenzamide, reference compound]",255 nM
5,"CONC(=O)C(=O)C(Cc1ccccc1)NC(=O)[C@H](CC1CC1)NC(=O)c1cccc(OC)c1 (stereo partly drawn) [Example 4, N-((S)-3-cyclopropyl-1-((4-(methoxyamino)-3,4-dioxo-1-phenylbutan-2-yl)amino)-1-oxopropan-2-yl)-3-methoxybenzamide]",7.1 nM
6,"COc1cccc(C(=O)N[C@H](C(=O)NC(Cc2ccccc2)C(=O)C(=O)NC2CC2)C(C)C)c1 (stereo partly drawn) [Example 2, N-((S)-1-((4-(cyclopropylamino)-3,4-dioxo-1-phenylbutan-2-yl)amino)-3-methyl-1-oxobutan-2-yl)-3-methoxybenzamide]",2.2 nM

# From US11242312B2, “Dipeptidyl ketoamide meta-methoxyphenyl derivatives and uses thereof” (LANDSTEINER GENMED, S.L., priority 2018, dated 2022)
